Data set [1] deals with T1, von Hippel-Lindau disease tumor suppressor/Bromodomain-containing protein 4 (Homo sapiens, UniProt O60885+P40337). As to the kind of experiment: PROTAC activity at VHL/BRD4 in HEK293 cells assessed as induction of BRD4 degradation by measuring maximal efficacy incubated for 24 hrs by HTRF assay relative to control. The class given is cell-based. On the technique in general: Time-resolved FRET reads energy transfer from a long-lived donor to a nearby acceptor.

For data set [2], the target named is T1, von Hippel-Lindau disease tumor suppressor/Bromodomain-containing protein 4. As to the kind of experiment: PROTAC activity at VHL/BRD4 in HEK293 cells assessed as induction of BRD4 degradation incubated for 24 hrs by HTRF assay. The class given is cell-based.
A short description of data set [3]: Chromatographic hydrophobicity index, logD of the compound at pH 7.4. The class given is physicochemical. The conditions noted are these: buffer.
The target of data set [4] is T2, Protein cereblon/Bromodomain-containing protein 4/DNA damage-binding protein 1 (Homo sapiens) (UniProt O60885+Q96SW2+Q16531). As to the kind of experiment: Binding affinity to biotinylated CRBN/DDB1/N-terminal GST-tagged BRD4-BD1(unknown origin) assessed as ternary complex formation (AUC) by HTRF assay. The class given is protein assay.
The target in data set [5] is T2, Protein cereblon/Bromodomain-containing protein 4/DNA damage-binding protein 1 (Homo sapiens). As to the kind of experiment: Binding affinity to biotinylated CRBN/DDB1/N-terminal GST-tagged BRD4-BD1 (unknown origin) assessed as ternary complex formation (KTF) by HTRF assay. Type of data set: protein assay.
In data set [6] the target is Bromodomain-containing protein 4 (Homo sapiens, UniProt O60885). As to the kind of experiment: Binding affinity to N-terminal GST-tagged BRD4-BD1 (unknown origin) using biotinylated histon4 peptide as substrate incubated for 30 mins by HTRF assay.
Data set [7] addresses T3, Protein cereblon (Homo sapiens, UniProt Q96SW2). As to the kind of experiment: Binding affinity to NanoLuc-fused CRBN (unknown origin) transfected in live HEK293 cells using NanoGlo as substrate incubated for 2 hrs by NanoBRET assay. Type of data set: cell-based. For orientation: In BRET a luciferase serves as donor, and the signal depends on an acceptor being close.
Data set [8] has as its target T3, Protein cereblon. As to the kind of experiment: Binding affinity to NanoLuc-fused CRBN (unknown origin) transfected in permeabilized HEK293 cells using NanoGlo as substrate incubated for 2 hrs by NanoBRET assay. The class given is cell-based.
Another data set is filed under the species Homo sapiens. As to the kind of experiment: Selectivity ratio of IC50 for NanoLuc-fused CRBN (unknown origin) transfected in live HEK293 cells to IC50 for NanoLuc-fused CRBN (unknown origin) transfected in permeabilized HEK293 cells. Type of data set: cell-based.
Data set [9] has as its target T4, Protein cereblon/Bromodomain-containing protein 4 (Homo sapiens, UniProt O60885+Q96SW2). As to the kind of experiment: PROTAC activity at CRBN/BRD4 in HEK293 cells assessed as induction of BRD4 degradation incubated for 24 hrs by HTRF assay. The class given is cell-based.
Data set [10] deals with T4, Protein cereblon/Bromodomain-containing protein 4. Description: PROTAC activity at CRBN/BRD4 in HEK293 cells assessed as induction of BRD4 degradation by measuring maximal efficacy incubated for 24 hrs by HTRF assay relative to control. The class given is cell-based.

One may read the Emax as the maximal effect, on the per cent scale that the assay sets. As usually defined, the DC50 is the concentration giving 50% degradation. The term chromatographic logD denotes a lipophilicity value derived from retention on a column. Usually IC50 stands for the midpoint of a concentration-inhibition curve.

T1 sequence (P40337 whole entry, looked up, other chains not shown): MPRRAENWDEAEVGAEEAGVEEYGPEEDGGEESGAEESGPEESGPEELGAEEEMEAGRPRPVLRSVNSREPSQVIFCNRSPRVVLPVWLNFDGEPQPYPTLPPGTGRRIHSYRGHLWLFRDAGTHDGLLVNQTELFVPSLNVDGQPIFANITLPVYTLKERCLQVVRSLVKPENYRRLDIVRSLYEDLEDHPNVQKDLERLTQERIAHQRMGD

Consider `Cc1ncsc1-c1ccc(CNC(=O)[C@@H]2C[C@@H](O)CN2C(=O)[C@H](C(C)C)N2Cc3ccccc3C2=O)c(OCCCOCCC(=O)C[C@@H]2N=C(c3ccc(Cl)cc3)c3c(sc(C)c3C)-n3c(C)nnc32)c1`, for which the Emax in [1] turned out to be 79%. The DC50 in [2] came to 13.4 nM. In [3], this compound yielded a chromatographic logD of 3.16.
With `Cc1sc2c(c1C)C(c1ccc(Cl)cc1)=N[C@@H](CCCCCNC(=O)COc1cccc3c1C(=O)N(C1CCC(=O)NC1=O)C3=O)c1nnc(C)n1-2` (stereo not given in full), the AUC in data set [4] was found to be 156. Further, the K in data set [5] turned out to be 29.2 nM. In addition, the figures for the concentration for half-maximal inhibition (IC50) (in data set [6]; on Protein cereblon [7]; on Protein cereblon [8]) were 66.9 nM, 503 nM and 121 nM, respectively. Besides, the Ratio IC50 in the data set filed under Homo sapiens worked out at 4.2. The same compound registered a chromatographic logD in [3] of 2.81. For the same compound, the DC50 in [9] was 10.8 nM. For the same compound, in [10], the Emax is 76%.
Turning to `Cc1ncsc1-c1ccc(CNC(=O)[C@@H]2C[C@@H](O)CN2C(=O)[C@H](C(C)C)N2Cc3ccccc3C2=O)c(OCCCOCCCC[C@@H]2N=C(c3ccc(Cl)cc3)c3c(sc(C)c3C)-n3c(C)nnc32)c1`, in data set [1], the maximal response (Emax) came to 58%. Further, in [2], the DC50 worked out at 228 nM. The compound further yielded a chromatographic logD in [3] of 3.38.
Regarding `Cc1sc2c(c1C)C(c1ccc(Cl)cc1)=N[C@@H](CCNCCCCNC(=O)COc1cccc3c1C(=O)N(C1CCC(=O)NC1=O)C3=O)c1nnc(C)n1-2` (stereo not given in full), the AUC in data set [4] came out at 71.5. Further, the K in data set [5] came to 108 nM. Also, the figures for the IC50 (in [6]; at Protein cereblon [7]; at Protein cereblon [8]) were 453 nM, 11300 nM and 102 nM, respectively. Moreover, the Ratio IC50 in the data set listed under Homo sapiens stood at 110. Also, the chromatographic logD in data set [3] stood at 1.66. Also, the DC50 in data set [9] was over 11000 nM. In [10], the Emax was found to be 2%.
For the compound `Cc1sc2c(c1C)C(c1ccc(Cl)cc1)=N[C@@H](CC(=O)OCCCCNC(=O)COc1cccc3c1C(=O)N(C1CCC(=O)NC1=O)C3=O)c1nnc(C)n1-2` (stereo not given in full), the AUC in [4] was found to be 158. In [5], the K came out at 5 nM. Moreover, the IC50 in data set [6] stood at 2.3 nM; at Protein cereblon [7] it was 264 nM; on Protein cereblon [8], 68.8 nM. Besides, the Ratio IC50 in the data set listed under Homo sapiens turned out to be 2.4. The compound also displayed a chromatographic logD in data set [3] of 2.68. For the same compound, the 50% degradation concentration (DC50) in data set [9] was 5.4 nM. For the same compound, the Emax in data set [10] was found to be 83%.
Take `Cc1sc2c(c1C)C(c1ccc(Cl)cc1)=N[C@@H](CC(=O)NCCCCNC(=O)COc1cccc3c1C(=O)N(C1CCC(=O)NC1=O)C3=O)c1nnc(C)n1-2` (stereo not given in full): the AUC in data set [4] was 163. For the same compound, in [5], the K was 9.4 nM. In addition, the chromatographic logD in data set [3] was 2.16. Besides, the Emax in [10] came out at 80%.
Turning to `Cc1ncsc1-c1ccc(CNC(=O)[C@@H]2C[C@@H](O)CN2C(=O)[C@H](C(C)C)N2Cc3ccccc3C2=O)c(OCCCOCCNCC[C@@H]2N=C(c3ccc(Cl)cc3)c3c(sc(C)c3C)-n3c(C)nnc32)c1`, the Emax in data set [1] came out at 14%. The half-maximal degradation concentration (DC50) in data set [2] is over 11000 nM. In addition, the chromatographic logD in data set [3] came out at 2.3.
The like results for `Cc1ncsc1-c1ccc(CNC(=O)[C@@H]2C[C@@H](O)CN2C(=O)[C@H](C(C)C)N2Cc3ccccc3C2=O)c(OCCCOCCNC(=O)C[C@@H]2N=C(c3ccc(Cl)cc3)c3c(sc(C)c3C)-n3c(C)nnc32)c1` were, in that order, 87%, 68.3 nM and 2.78.
The corresponding values for `Cc1ncsc1-c1ccc(CNC(=O)[C@@H]2C[C@@H](O)CN2C(=O)[C@H](C(C)C)N2Cc3ccccc3C2=O)c(OCCCOCCOC(=O)C[C@@H]2N=C(c3ccc(Cl)cc3)c3c(sc(C)c3C)-n3c(C)nnc32)c1` are 89%, 15.8 nM and 3.25.
As for `Cc1sc2c(c1C)C(c1ccc(Cl)cc1)=N[C@@H](CC(=O)CCCCNC(=O)COc1cccc3c1C(=O)N(C1CCC(=O)NC1=O)C3=O)c1nnc(C)n1-2` (stereo not given in full), the AUC in data set [4] came out at 251. Further, in [5], the K was 6.7 nM. Further, the IC50 in [6] turned out to be 24.2 nM; on Protein cereblon [7], 422 nM; on Protein cereblon [8] it was 107 nM. In the data set filed under Homo sapiens, the Ratio IC50 came to 3.9. The chromatographic logD in data set [3] came to 2.57. For the same compound, the DC50 in data set [9] is 9.2 nM. Further, the Emax in data set [10] was 85%.

The record behind these values is ChEMBL document CHEMBL6087442, “Modulating the Potency of BRD4 PROTACs at the Systems Level with Amine-Acid Coupling Reactions” (J Med Chem, 2025).
